One test addresses Cytochrome P450 3A4 (Homo sapiens, UniProt P08684). The experiment in a line: Inhibition of CYP3A4. The test is classed as ADME.
The target of test [1] is Insulin-like growth factor 1 receptor (Homo sapiens, UniProt P08069).
Description: Inhibition of human recombinant full length IGF1R expressed in mouse 3T3 cells

Where only a bound is given, the exact number is not on record here.

Sequence of Cytochrome P450 3A4 (P08684 whole entry): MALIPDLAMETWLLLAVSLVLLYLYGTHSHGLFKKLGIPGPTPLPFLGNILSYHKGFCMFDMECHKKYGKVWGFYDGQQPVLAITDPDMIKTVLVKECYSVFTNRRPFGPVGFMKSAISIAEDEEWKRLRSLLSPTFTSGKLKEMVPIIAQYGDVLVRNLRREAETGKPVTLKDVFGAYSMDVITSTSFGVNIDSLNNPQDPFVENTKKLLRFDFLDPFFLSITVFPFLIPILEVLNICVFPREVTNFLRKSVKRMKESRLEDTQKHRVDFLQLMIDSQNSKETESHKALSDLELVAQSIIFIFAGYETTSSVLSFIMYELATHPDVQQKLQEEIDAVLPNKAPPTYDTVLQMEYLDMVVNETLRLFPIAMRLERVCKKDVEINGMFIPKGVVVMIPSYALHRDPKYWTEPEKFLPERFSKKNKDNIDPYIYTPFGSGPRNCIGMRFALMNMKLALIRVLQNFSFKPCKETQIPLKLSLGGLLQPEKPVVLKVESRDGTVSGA
Sequence of Insulin-like growth factor 1 receptor (P08069 31-736 limits assumed): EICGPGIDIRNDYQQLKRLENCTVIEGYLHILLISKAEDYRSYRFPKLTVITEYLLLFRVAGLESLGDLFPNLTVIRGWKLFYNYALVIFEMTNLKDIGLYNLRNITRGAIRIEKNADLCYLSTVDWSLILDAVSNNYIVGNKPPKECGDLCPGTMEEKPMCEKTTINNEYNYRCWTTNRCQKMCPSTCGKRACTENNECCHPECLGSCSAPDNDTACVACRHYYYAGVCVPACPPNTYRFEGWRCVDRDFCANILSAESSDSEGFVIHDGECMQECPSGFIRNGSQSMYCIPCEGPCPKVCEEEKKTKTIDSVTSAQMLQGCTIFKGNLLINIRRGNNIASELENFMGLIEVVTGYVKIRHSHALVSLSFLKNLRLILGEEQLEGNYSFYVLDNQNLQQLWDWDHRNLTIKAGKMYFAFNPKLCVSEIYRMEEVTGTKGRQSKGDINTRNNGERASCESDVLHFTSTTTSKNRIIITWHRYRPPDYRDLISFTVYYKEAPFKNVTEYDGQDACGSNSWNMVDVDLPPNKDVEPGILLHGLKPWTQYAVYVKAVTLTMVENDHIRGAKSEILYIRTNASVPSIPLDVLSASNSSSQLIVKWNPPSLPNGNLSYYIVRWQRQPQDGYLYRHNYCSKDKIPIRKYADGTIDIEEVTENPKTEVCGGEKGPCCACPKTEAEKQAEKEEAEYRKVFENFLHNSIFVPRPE
Sequence of Insulin-like growth factor 1 receptor (P08069 741-1367 limits assumed): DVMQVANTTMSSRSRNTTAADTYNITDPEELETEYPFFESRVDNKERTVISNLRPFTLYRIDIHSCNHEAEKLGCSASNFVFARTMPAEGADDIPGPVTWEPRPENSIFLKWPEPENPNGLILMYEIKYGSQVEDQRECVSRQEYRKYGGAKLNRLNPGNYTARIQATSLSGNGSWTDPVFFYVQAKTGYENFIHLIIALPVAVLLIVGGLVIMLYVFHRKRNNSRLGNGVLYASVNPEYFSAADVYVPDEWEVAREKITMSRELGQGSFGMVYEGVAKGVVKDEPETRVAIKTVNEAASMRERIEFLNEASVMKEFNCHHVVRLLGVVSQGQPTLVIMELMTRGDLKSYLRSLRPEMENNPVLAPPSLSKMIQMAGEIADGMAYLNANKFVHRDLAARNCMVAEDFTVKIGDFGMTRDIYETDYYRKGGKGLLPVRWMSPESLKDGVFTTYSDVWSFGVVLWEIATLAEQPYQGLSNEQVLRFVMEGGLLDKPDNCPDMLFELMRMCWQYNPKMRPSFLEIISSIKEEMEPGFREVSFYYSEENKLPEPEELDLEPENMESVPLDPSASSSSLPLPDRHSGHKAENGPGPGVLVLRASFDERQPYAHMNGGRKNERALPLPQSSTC

For `Nc1nccn2c1c(-c1ccc3ccc(-c4ccccc4)nc3c1)nc2[C@H]1C[C@@H](N2CCOCC2)C1`, at Cytochrome P450 3A4, the half-inhibitory concentration (IC50) amounted to 12 µM.

For the compound `Nc1nccn2c1c(-c1ccc3ccc(-c4ccccc4)nc3c1)nc2[C@H]1C[C@H](CN2CCC2)C1`, the 50% inhibitory concentration (IC50) on Cytochrome P450 3A4 amounted to 17 µM; in test [1], 0.042 µM.

`Nc1nccn2c(C3CCC3)nc(-c3ccc4ccc(-c5ccccc5)nc4c3)c12`: at Cytochrome P450 3A4, the IC50 was found to be 3.4 µM.

At Cytochrome P450 3A4, `Nc1nccn2c1c(-c1ccc3ccc(-c4ccccc4)nc3c1)nc2[C@H]1C[C@H](CN2CCOCC2)C1` showed an IC50 of more than 20 µM.

One may read the IC50 as the point on the concentration scale where inhibition reaches its midpoint. High values mean lower potency, low ones higher potency.

Values taken from ChEMBL document CHEMBL1143953, “Novel 2-phenylquinolin-7-yl-derived imidazo[1,5-a]pyrazines as potent insulin-like growth factor-I receptor (IGF-IR) inhibitors” (Bioorg Med Chem, 2008).
